Laboratory results published in patent US10882854B2, “Heterocyclic compounds and use thereof” (National Health Research Institutes, priority 2017, dated 2021).

What was measured:
human CXCR4 = biological target: T1, human CXCR4 (Homo sapiens, UniProt P61073); assay: Inhibition of 125I-CXCL12 radioligand binding, membranes of human CXCR4-transfected HEK293 cells; conditions: 0.16 nM 125I-CXCL12, 60 min at 30 °C, read-out: concentration required to inhibit binding of 125I-CXCL12 to CXCR4 by 50% (IC50)
T1 construct: expressed in transfected cells; host or cells: HEK293 cells (membranes)
Method: Binding competition between the compounds of Formula (I) and human CXCL12 was assessed using a radioligand binding assay as described below.
Membranes (2-4 μg) prepared from human CXCR4-transfected HEK293 cells in 40 μL of assay buffer (50 mM HEPES-NaOH, pH 7.4, 100 mM NaCl, 5 mM MgCl2, 1 mM CaCl2, 0.5% bovine serum albumin) were incubated with 20 μL of radio-labeled ^125I-CXCL12 (0.16 nM) and 20 μL of a test compound in an assay plate (Costar Corning, Cambridge, Mass.). After 60 minutes at 30° C., the incubation was terminated by transferring the resulting reaction mixture to a 96-well GF/B filter plate (Millipore Corp., Billerica, Mass.) and filtered via a manifold. The plate was washed with 100 μL of ice-cold wash buffer (50 mM HEPES-NaOH, pH 7.4, 100 mM NaCl) four times. The radioactivity bound to the filter was measured by Topcount (PerkinElmer Inc., Waltham, Mass.).

[1] = system: T-cell acute lymphoblastic leukemia (CCRF-CEM) cells; assay: Inhibition of CXCL12-induced chemotaxis in lymphoblastic leukemia cells; assay type: cell-based; conditions: Homo sapiens, CXCL12 10 nM, 2.5 h at 37 °C, read-out: concentration required to inhibit chemotaxis by 50% (EC50)
Method: The response of cancer cells to compounds of Formula (I) was evaluated using the chemotaxis assay as set forth below.
T-cell acute lymphoblastic leukemia (CCRF-CEM) cells in Roswell Park Memorial Institute medium (RPMI) 1640 supplemented with 10% […] were incubated with 250 μL of a test compound. The assay was performed using Millicell Hanging Cell Culture Inserts (pore size 5 μm; 24-well plate; Millipore, Bedford, Mass., USA). After 10 minutes at 37° C., 250 μL of cells pre-incubated with a test compound were plated per well in the upper chambers of the inserts at a density of 2.5×10^5 cells/well. 300 μL/well medium containing CXCL12 (10 nM) and a test compound were plated in the lower chamber of the insert. After 2.5 h at 37° C., cells in both chambers of inserts were measured by flow cytometry (Guava Technologies, Hayward, Calif., USA).

T1 sequence (P61073 whole entry): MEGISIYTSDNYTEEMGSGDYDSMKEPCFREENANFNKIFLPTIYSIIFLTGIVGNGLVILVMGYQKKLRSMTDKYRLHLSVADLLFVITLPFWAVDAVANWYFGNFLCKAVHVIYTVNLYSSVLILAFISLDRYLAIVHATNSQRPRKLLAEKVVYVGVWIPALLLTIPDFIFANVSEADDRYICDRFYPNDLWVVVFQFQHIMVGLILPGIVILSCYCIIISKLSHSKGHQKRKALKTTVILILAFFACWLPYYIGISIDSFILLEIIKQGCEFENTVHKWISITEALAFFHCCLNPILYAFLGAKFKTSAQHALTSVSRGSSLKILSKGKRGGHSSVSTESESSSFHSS

Row | IC50 (human CXCR4) [nM] | EC50 [1] [nM] | SMILES
1 | 100 to 1000 |  | Nc1cc(N2CCNCC2)nc(NCc2nnn(CCCNCCCNC3CCCCC3)n2)n1 [Compound 57]
2 | 50 to 100 |  | c1cc(NC2CCNCC2)nc(NCc2nnn(CCCNCCCNC3CCCCC3)n2)n1 [Compound 58]
3 | 100 to 1000 |  | N[C@@H](CCC(=O)N1CCC(Nc2nc(NCCc3cn(CCCCNCCCNC4CCCCC4)cn3)nc3ccccc23)CC1)C(=O)OCc1ccccc1 [Compound 60]
4 | 100 to 1000 |  | CCc1cc(NC2CCN(C(=O)CCNCC(=O)O)CC2)nc(NCc2nnn(CCCNCCCNC3CCCCC3)n2)n1 [Compound 63]
5 | 100 to 1000 |  | CCc1cc(NC2CCN(C(=O)CCCNCC(=O)O)CC2)nc(NCc2nnn(CCCNCCCNC3CCCCC3)n2)n1 [Compound 64]
6 | 100 to 1000 |  | CCc1cc(NC2CCN(C(=O)CC[C@H](N)C(=O)O)CC2)nc(NCc2nnn(CCCNCCCNC3CCCCC3)n2)n1 [Compound 65]
7 | 50 to 100 |  | CCc1cc(NC2CCN(C(=O)CC[C@H](N)C(=O)O)CC2)nc(NCc2nnc(CCCNCCCNC3CCCCC3)[nH]2)n1 [Compound 66]
8 | 100 to 1000 |  | N[C@@H](CCC(=O)N1CCC(Nc2nc(NCc3nnnn3CCCNCCCNC3CCCCC3)nc3ccccc23)CC1)C(=O)O [Compound 67]
9 | 100 to 1000 |  | O=C(O)CNCCC(=O)N1CCC(Nc2nc(NCc3nnnn3CCCNCCCNC3CCCCC3)nc3ccccc23)CC1 [Compound 68]
10 | 100 to 1000 |  | CCc1cc(NC2CCN(C(=O)CC[C@H](N)C(=O)O)CC2)nc(NCc2nnc(CCCNCCCNC3CCCCC3)s2)n1 [Compound 69]
11 | 100 to 1000 |  | CCc1cc(NC2CCN(C(=O)CCNCC(=O)O)CC2)nc(NCc2nnc(CCCNCCCNC3CCCCC3)s2)n1 [Compound 70]
12 | 100 to 1000 |  | Cc1cc(NC2CCNCC2)nc(NCc2ncn(CCCNCCCNC3CCCCC3)n2)n1 [Compound 71]
13 | 50 to 100 |  | C1=NC(CNc2nc(NC3CCNCC3)c3ccccc3n2)=NC1CNCCCNC1CCCCC1 (stereo not drawn) [Compound 72]
14 | 50 to 100 |  | Cc1cc(NC2CCNCC2)nc(NCc2nc(CNCCCNC3CCCCC3)c[nH]2)n1 [Compound 73]
15 | 100 to 1000 |  | FC(F)(F)c1cnc(NCc2nnn(CCCNCCCNC3CCCCC3)n2)nc1NC1CCNCC1 [Compound 74]
16 | < 50 |  | Cc1cnc(NCc2nnn(CCCNCCCNC3CCCCC3)n2)nc1NC1CCNCC1 [Compound 75]
17 | 50 to 100 |  | N[C@@H](CCC(=O)N1CCC(Nc2nc(NCc3cc(CCCNCCCNC4CCCCC4)n[nH]3)nc3ccccc23)CC1)C(=O)O [Compound 76]
18 | 100 to 1000 |  | N[C@@H](CCC(=O)N1CCC(Nc2nc(NCc3ncn(CCCNCCCNC4CCCCC4)n3)nc3ccccc23)CC1)C(=O)O [Compound 77]
19 | 50 to 100 |  | O=C(O)[C@H]1CCCN1CCC(=O)N1CCC(Nc2nc(NCc3nnn(CCCNCCCNC4CCCCC4)n3)nc3ccccc23)CC1 [Compound 78]
20 | 100 to 1000 |  | N[C@@H](CCC(=O)N1CCC(Nc2nc(NCc3nc(CNCCCNC4CCCCC4)c[nH]3)nc3ccccc23)CC1)C(=O)O [Compound 79]
21 | 100 to 1000 |  | CC(C)CC(NCCC(=O)N1CCC(Nc2nc(NCc3nnn(CCCNCCCNC4CCCCC4)n3)nc3ccccc23)CC1)C(=O)O (stereo not drawn) [Compound 80]
22 | 100 to 1000 |  | Cc1cc(NC2CCN(C(=O)CCNCC(=O)O)CC2)nc(NCc2ncn(CCCNCCCNC3CCCCC3)n2)n1 [Compound 81]
23 | 50 to 100 |  | CCOC(=O)CNCCC(=O)N1CCC(Nc2cc(C)nc(NCc3cc(CCCNCCCNC4CCCCC4)n[nH]3)n2)CC1 [Compound 82]
24 | 100 to 1000 |  | Cc1cc(NC2CCN(C(=O)CCNCC(=O)O)CC2)nc(NCc2nc(CNCCCNC3CCCCC3)c[nH]2)n1 [Compound 83]
25 | 100 to 1000 |  | N[C@@H](CCC(=O)NCCN1CCC(Nc2nc(NCc3nc(CNCCCNC4CCCCC4)cs3)nc3ccccc23)CC1)C(=O)NCCP(=O)(O)O [Compound 84]
26 | 100 to 1000 |  | Cc1cnc(NCc2nnn(CCCNCCCNC3CCCCC3)n2)nc1NC1CCN(C(=O)CCNCC(=O)O)CC1 [Compound 85]
27 | 100 to 1000 |  | Cc1cnc(NCc2nnn(CCCNCCCNC3CCCCC3)n2)nc1NC1CCN(C(=O)CC[C@H](N)C(=O)O)CC1 [Compound 86]

The remaining lines, values behind:

Row | SMILES | IC50 (human CXCR4) [nM] | EC50 [1] [nM]
28 | c1ccc2c(NC3CCNCC3)nc(NCc3cc(CCCNCCCNC4CCCCC4)on3)nc2c1 [Compound 1] | < 50 | < 50
29 | c1ccc2c(NC3CCNCC3)nc(NCc3coc(CCCNCCCNC4CCCCC4)n3)nc2c1 [Compound 2] | < 50 | < 50
30 | c1ccc2c(NC3CCNCC3)nc(NCc3nc(CCCNCCCNC4CCCCC4)cs3)nc2c1 [Compound 3] | < 50 | < 50
31 | c1ccc2c(NC3CCNCC3)nc(NCc3nnc(CCCNCCCNC4CCCCC4)o3)nc2c1 [Compound 6] | < 50 | < 50
32 | c1ccc2c(NC3CCNCC3)nc(NCc3nnc(CCCNCCCNC4CCCCC4)s3)nc2c1 [Compound 7] | < 50 | < 50
33 | c1ccc2c(NC3CCNCC3)nc(NCCc3cn(CCCCNCCCNC4CCCCC4)cn3)nc2c1 [Compound 8] | 50 to 100 | < 50
34 | c1ccc2c(NC3CCNCC3)nc(NCc3cc(CCCNCCCNC4CCCCC4)[nH]n3)nc2c1 [Compound 9] | < 50 | 
35 | c1ccc2c(NC3CCNCC3)nc(NCc3ncn(CCCNCCCNC4CCCCC4)n3)nc2c1 [Compound 11] | 50 to 100 | 
36 | c1ccc2c(N3CCNCC3)nc(NCc3nnn(CCCNCCCNC4CCCCC4)n3)nc2c1 [Compound 12] | < 50 | 
37 | c1ccc2c(NC3CCNCC3)nc(NCc3nnnn3CCCNCCCNC3CCCCC3)nc2c1 [Compound 14] | 50 to 100 | < 50
38 | Cc1cc(NC2CCNCC2)nc(NCc2cc(CCCNCCCNC3CCCCC3)on2)n1 [Compound 15] | < 50 | < 50
39 | Cc1cc(NC2CCNCC2)nc(NCc2coc(CCCNCCCNC3CCCCC3)n2)n1 [Compound 16] | < 50 | < 50
40 | Cc1cc(NC2CCNCC2)nc(NCc2nc(CCCNCCCNC3CCCCC3)cs2)n1 [Compound 17] | < 50 | < 50
41 | Cc1cc(NC2CCNCC2)nc(NCc2nc(CCCNCCCNC3CCCCC3)co2)n1 [Compound 18] | < 50 | < 50
42 | Cc1cc(NC2CCNCC2)nc(NCc2noc(CCCNCCCNC3CCCCC3)n2)n1 [Compound 19] | < 50 | 
43 | Cc1cc(NC2CCNCC2)nc(NCc2nnc(CCCNCCCNC3CCCCC3)o2)n1 [Compound 20] | 50 to 100 | < 50

Row | SMILES | IC50 (human CXCR4) [nM] | EC50 [1] [nM]
44 | Cc1cc(NC2CCNCC2)nc(NCc2nnc(CCCNCCCNC3CCCCC3)s2)n1 [Compound 21] | < 50 | < 50
45 | Cc1cc(NC2CCNCC2)nc(NCCc2cn(CCCCNCCCNC3CCCCC3)cn2)n1 [Compound 22] | 50 to 100 | < 50
46 | Cc1cc(NC2CCNCC2)nc(NCc2nnn(CCCNCCCNC3CCCCC3)n2)n1 [Compound 23] | < 50 | < 50
47 | Cc1cc(NC2CCNCC2)nc(NCc2nnc(CCCNCCCNC3CCCCC3)[nH]2)n1 [Compound 24] | 50 to 100 | < 50
48 | CCc1cc(NC2CCNCC2)nc(NCc2nnc(CCCNCCCNC3CCCCC3)s2)n1 [Compound 25] | < 50 | 
49 | CCc1cc(NC2CCNCC2)nc(NCc2nnc(CCCNCCCNC3CCCCC3)[nH]2)n1 [Compound 27] | 50 to 100 | 
50 | Cc1cc(NC2CCNCC2)nc(NCc2cc(CCCNCCCNC3CCCCC3)[nH]n2)n1 [Compound 28] | < 50 | 
51 | N[C@@H](CCC(=O)N1CCC(Nc2nc(NCCc3cn(CCCCNCCCNC4CCCCC4)cn3)nc3ccccc23)CC1)C(=O)O [Compound 36] | 100 to 1000 | 
52 | Cc1cc(NC2CCN(C(=O)CCNCC(=O)O)CC2)nc(NCc2noc(CCCNCCCNC3CCCCC3)n2)n1 [Compound 43] | 50 to 100 | 
53 | Cc1cc(NC2CCN(C(=O)CCNCC(=O)O)CC2)nc(NCc2nnc(CCCNCCCNC3CCCCC3)o2)n1 [Compound 44] | 100 to 1000 | 
54 | N[C@@H](CCC(=O)NCCN1CCC(Nc2nc(NCc3nnc(CCCNCCCNC4CCCCC4)o3)nc3ccccc23)CC1)C(=O)NCCP(=O)(O)O [Compound 51] | 100 to 1000 | 
55 | N[C@@H](CCC(=O)NCCN1CCC(Nc2nc(NCc3nnnn3CCCNCCCNC3CCCCC3)nc3ccccc23)CC1)C(=O)NCCP(=O)(O)O [Compound 52] | 100 to 1000 | 
56 | c1cnc2nc(NCc3nnn(CCCNCCCNC4CCCCC4)n3)nc(NC3CCNCC3)c2c1 [Compound 53] | 100 to 1000 | 
57 | O=C(O)[C@@H](O)CCC(=O)N1CCC(Nc2nc(NCc3nc(CCCNCCCNC4CCCCC4)co3)nc3ccccc23)CC1 [Compound 54] | 100 to 1000 | 
58 | c1nc2c(NCc3nnn(CCCNCCCNC4CCCCC4)n3)nc(N3CCNCC3)nc2[nH]1 [Compound 55] | 100 to 1000 | 
59 | c1cc2c(NC3CCNCC3)nc(NCc3nnn(CCCNCCCNC4CCCCC4)n3)nc2s1 [Compound 56] | 100 to 1000 | 
